Assay results as given in patent publication US4609758A, “Phenoxyethylamine derivatives” (American Home Products Corporation, priority 1985, dated 1986).

Key:
[1] = tested on: synaptosomal uptake of norepinephrine; test: Inhibition of synaptosomal norepinephrine (3H-NE) uptake; format: biochemical; conditions: synaptosomal uptake of 3H-NE, read-out: NE uptake, inhibitory concentration at which the rate of uptake was reduced to 50 percent (IC50)
[2] = tested on: synaptosomal uptake of serotonin (5-HT); test: Inhibition of synaptosomal serotonin (14C-5-HT) uptake; format: biochemical; conditions: synaptosomal uptake of 14C-5-HT, read-out: 5-HT uptake, inhibitory concentration at which the rate of uptake was reduced to 50 percent (IC50)
[3] = tested on: muscarinic receptor; test: Inhibition of 3H-QNB binding (QNB receptor binding assay); conditions: for anticholinergic property reflected by inhibition of binding of the muscarinic receptor ligand 3H-QNB (in words): 3H-quinuclidinyl benzilate; for IC50 / Ki: inhibition of 3H-QNB binding

Row | Structure (SMILES) | IC50 [1] | IC50 [2] | anticholinergic property reflected by inhibition of binding of the muscarinic receptor ligand 3H-QNB (in words) [3] | IC50 [3] | Ki [3]
1 | CN(C)CC(Oc1ccc(Cl)cc1Cl)C1(O)CCCCC1 (centres unmarked) [Example 2, 1-[1-(2,4-Dichlorophenoxy)-2-(dimethylamino)ethyl]cyclohexanol] | 3140 nM | 530 nM | essentially inactive | > 10000 nM | –
2 | CNCCCN1c2ccccc2CCc2ccccc21 [DMI, reference compound] | 150 nM | – | – | – | […]
3 | CNCCC(Oc1ccc(C(F)(F)F)cc1)c1ccccc1 (centres unmarked) [Fluoxetine, reference compound] | 4500 nM | – | – | – | –
4 | CN(C)CC(Oc1ccc(Cl)cc1Cl)C1(O)CCCC1 (centres unmarked) [Example 3, 8-[1-(2,4-Dichlorophenoxy)-2-(dimethylamino)ethyl]cyclopentanol] | 2250 nM | 440 nM | – | – | –
5 | CN(C)CC(Oc1ccc(Cl)cc1)C1(O)CCCCC1 (centres unmarked) [Example 1, 1-[1-(4-Chlorophenoxy)-2-(dimethylamino)ethyl]cyclohexanol] | 220 nM | 170 nM | essentially inactive | > 10000 nM | –
6 | CN(C)CC(Oc1ccc(C(F)(F)F)cc1)C1(O)CCCCC1 (centres unmarked) [Example 8, 1-[2-Dimethylamino-1-(4-trifluoromethylphenoxy)ethyl]cyclohexanol] | 2500 nM | 340 nM | – | – | –
7 | COc1ccc(OC(CN(C)C)C2(O)CCCCCC2)cc1 (centres unmarked) [Example 5, 1-[2-(Dimethylamino)-1-(4-methoxyphenoxy)ethyl]cycloheptanol] | 810 nM | 170 nM | – | – | –
8 | COc1cccc(OC(CN(C)C)C2(O)CCCC2)c1 (centres unmarked) [Example 12, 1-[2-(Dimethylamino)-1-(3-methoxyphenoxy)ethyl]cyclopentanol] | 1580 nM | 970 nM | – | – | –
9 | CN(C)CCCN1c2ccccc2CCc2ccccc21 [Imipramine, reference compound] | 260 nM | 120 nM | – | – | 37 nM
10 | COc1ccc(OC(CN(C)C)C2(O)CCCC2)cc1 (centres unmarked) [Example 6, 1-[2-(dimethylamino)-1-(4-methoxyphenoxy)ethyl]cyclopentanol] | 3140 nM | 640 nM | – | – | –
11 | CN(C)CC(Oc1ccc(C(F)(F)F)cc1)C1(O)CCCCCC1 (centres unmarked) [Example 9, 1-[2-Dimethylamino-1-(4-trifluoromethylphenoxy)ethyl]cycloheptanol] | 3780 nM | 490 nM | – | – | –
12 | COc1ccc(OC(CN(C)C)C2(O)CCCCC2)cc1 (centres unmarked) [Example 4, 1-[2-(Dimethylamino)-1-(4-methoxyphenoxy)ethyl]cyclohexanol] | 920 nM | 180 nM | – | – | –
13 | CN(C)CC(Oc1cccc(C(F)(F)F)c1)C1(O)CCCCC1 (centres unmarked) [Example 7, 1-[2-(dimethylamino)-1-(3-trifluoromethylphenoxy)ethyl]cyclohexanol] | 2350 nM | 1200 nM | – | – | –
14 | COc1cccc(OC(CN(C)C)C2(O)CCCCC2)c1 (centres unmarked) [Example 10, 1-[2-(Dimethylamino)-1-(3-methoxyphenoxy)ethyl]cyclohexanol] | 1160 nM | 700 nM | – | – | –
16 | COc1cccc(OC(CN(C)C)C2(O)CCCCCC2)c1 (centres unmarked) [Example 11, 1-[2-(Dimethylamino)-1-(3-methoxyphenoxy)ethyl]cycloheptanol] | 1160 nM | 900 nM | – | – | –
